Measurements published in PubChem BioAssay (NCI).
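Growth conditions: 96-well plates. Treatment: test compound, 48 hours, 5 concentrations. Analysis: linear interpolation between bracketing concentrations; unreached endpoints set to highest concentration. GI50 marks 50% less growth. TGI is the concentration that stops growth completely.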

Assays:
Assay in all cases: growth of human tumour cells (NCI), 48 h
SK-MEL-5 melanoma = tested on: SK-MEL-5 melanoma
PC-3 prostate = tested on: PC-3 prostate
NCI-H226 lung = tested on: NCI-H226 lung
SW-620 colon = tested on: SW-620 colon
IGROV1 ovarian = tested on: IGROV1 ovarian
OVCAR-8 ovarian = tested on: OVCAR-8 ovarian
ACHN renal = tested on: ACHN renal
RXF 393 renal = tested on: RXF 393 renal
UO-31 renal = tested on: UO-31 renal
T-47D breast = tested on: T-47D breast

Row | SMILES | GI50 (SK-MEL-5 melanoma) [µM] | TGI (SK-MEL-5 melanoma) [µM] | GI50 (PC-3 prostate) [µM] | TGI (PC-3 prostate) [µM] | GI50 (NCI-H226 lung) [µM] | TGI (NCI-H226 lung) [µM] | GI50 (SW-620 colon) [µM] | TGI (SW-620 colon) [µM] | GI50 (IGROV1 ovarian) [µM] | TGI (IGROV1 ovarian) [µM] | GI50 (OVCAR-8 ovarian) [µM] | TGI (OVCAR-8 ovarian) [µM] | GI50 (ACHN renal) [µM] | TGI (ACHN renal) [µM] | GI50 (RXF 393 renal) [µM] | TGI (RXF 393 renal) [µM] | GI50 (UO-31 renal) [µM] | TGI (UO-31 renal) [µM] | GI50 (T-47D breast) [µM] | TGI (T-47D breast) [µM]
1 | COC(=O)[C@@H](C)C[C@H](Cc1ccccc1)NC(=O)c1nc([C@@H](C[C@H](C(C)C)N(C)C(=O)[C@@H](NC(=O)[C@H]2CCCCN2C)C(C)C)OC(C)=O)sc1C | < 0.00167 | 0.0565 | < 0.00167 | > 16.7 | 0.0275 | > 16.7 | < 0.00167 | > 16.7 | 0.0017 | > 16.7 | < 0.00167 | > 16.7 | 0.00585 | > 16.7 | < 0.00167 | > 16.7 | 0.0118 | > 16.7 |  | 
2 | Cc1cccc(NC(=O)CC(=O)N2N=C(N(CCC#N)c3ccc(Cl)cc3)CC2c2ccccc2)c1 (stereo unspecified) |  | > 100 |  |  |  |  |  | > 100 |  | > 100 |  | > 100 |  | > 100 |  | > 100 |  | > 100 |  | 
3 | CCCc1[nH]nc(CCC(=O)N(Cc2ccccc2)Cc2ccccc2)c1CC |  | > 100 |  |  |  | > 100 |  | > 100 |  | > 100 |  | > 100 |  | > 100 |  | > 100 |  | > 100 |  | 
4 | CNS(=O)(=O)NN(C)S(=O)(=O)c1ccc(F)cc1 |  | > 100 |  |  |  | > 100 |  | > 100 |  | > 100 |  | > 100 |  | > 100 |  | > 100 |  | > 100 |  | 
5 | CC1=NCCc2c1[nH]c1cc(O)ccc21 |  | > 100 |  |  |  | > 100 |  | > 100 |  | > 100 |  | > 100 |  | > 100 |  | > 100 |  | > 100 |  | 
6 | COc1ccccc1NC(=O)C1=C(C)NC(C)=C(C(=O)Nc2ccccc2OC)C1c1ccccc1F |  | > 100 |  |  |  | > 100 |  | > 100 |  | > 100 |  | > 100 |  | > 100 |  |  |  | > 100 |  | 
7 | COC(=O)CCC1CCc2c(OC)ccc(O)c2C1=O (stereo unspecified) |  | > 100 |  |  |  | 84.1 |  | > 100 |  | > 100 |  | > 100 |  | > 100 |  | > 100 |  | > 100 |  | 
8 | COc1nc(NC2OCC(OC(C)=O)C(OC(C)=O)C2OC(C)=O)c(N=CC=Nc2c(NC3OCC(OC(C)=O)C(OC(C)=O)C3OC(C)=O)nc(OC)n(C)c2=O)c(=O)n1C (stereo unspecified) |  | > 100 |  |  |  |  |  | > 100 |  | > 100 |  | > 100 |  | > 100 |  | > 100 |  | > 100 |  | 
9 | COCCN1C2=CCCCC2=Nc2c1nc(N)[nH]c2=O |  | > 100 |  |  |  | > 100 |  |  |  | > 100 |  | > 100 |  | > 100 |  | > 100 |  | > 100 |  | 
10 | C[N+](C)(C)CC(=O)N/N=C(/Cc1nc2c3c(ccc2[nH]c1=O)C(=O)c1ccccc1C3=O)C(=O)Nc1ccc(Cl)c(Cl)c1 |  | > 100 |  |  |  |  |  | > 100 |  | > 100 |  | > 100 |  | > 100 |  | > 100 |  | 47.2 |  | 
11 | Nc1cc2cccc[n+]2c2cc(Cl)ccc12 | 10.4 | 23.2 |  |  | 13.5 | 59.5 | 26.2 |  | 71.6 |  | 16.8 | 57.9 | 34.6 |  | 87.9 |  | 43.6 |  | 6.83 | 
12 | Cc1ccc(C(=O)O/N=C2/CCC/C2=C\c2ccccc2)cc1 |  | > 100 |  |  |  | > 100 |  | > 100 |  | > 100 |  | > 100 |  | > 100 |  | > 100 |  | > 100 |  | 
13 | COC(=O)c1csnn1 |  | > 100 |  |  |  | > 100 |  | > 100 |  | > 100 |  | > 100 |  | > 100 |  |  |  | > 100 |  | 
14 | CCN1C(=O)N(CC)C2C1NN=c1s/c(=C\c3cccnc3)c(=O)n12 (stereo unspecified) | 0.344 | 12.6 | 0.451 | > 100 | 1.1 | > 100 | 0.393 | > 100 | 0.843 | > 100 | 0.823 | > 100 | 0.694 | > 100 | 0.271 | 3.35 | 1.53 | > 100 |  | 
15 | COc1ccc2nc3cc([N+](=O)[O-])ccc3c(NCCCCCN(C)C)c2c1 | 0.159 | 0.39 |  | 1.75 | 0.309 | 1.68 | 0.272 | 3 | 0.37 | 2.53 | 0.214 | 1.32 | 0.592 | 7.49 |  |  | 0.819 | 3.63 | 0.307 | 1.73
16 | CC(C)C(=O)Nc1nc2nc[nH]c2c(=O)[nH]1 |  | > 100 |  |  |  | > 100 |  | > 100 |  | > 100 |  | > 100 |  | > 100 |  | > 100 |  | > 100 |  | 
17 | COC(=O)CCC(NC(=S)N/N=C(\C)c1nccs1)C(=O)OC (stereo unspecified) |  | > 100 |  |  |  | > 100 |  | > 100 |  | > 100 |  | > 100 |  | > 100 |  | > 100 |  | > 100 |  | 
18 | O=Cc1cn(C(=O)c2ccccc2)c2ccccc12 |  | > 100 |  |  |  | > 100 |  | > 100 |  | > 100 |  | > 100 |  | > 100 |  | > 100 |  | > 100 |  | 
19 | CC1(C)SC2C(NC(=O)C(N)c3ccccc3)C(=O)N2C1C(=O)O (stereo unspecified) |  | > 100 |  | > 100 |  |  |  | > 100 |  | > 100 |  | > 100 |  | > 100 |  |  |  | > 100 |  | > 100
20 | CCCCCCCCCc1cc(=O)c2ccc(OCc3ccccc3)cc2o1 |  | > 100 |  |  |  | > 100 |  | > 100 |  | > 100 |  | > 100 |  | > 100 |  | > 100 |  | > 100 |  | 
21 | O=C(O)c1ccc([Se][Se]c2ccc(C(=O)O)cc2)cc1 |  |  |  |  |  | 76.5 |  | > 100 |  | 71.1 |  | 70.8 |  |  |  | 52.9 |  | 77.7 |  | 
22 | O=c1c2c([nH]c3cc4c(cc13)OCO4)-c1ccccc1CC2 |  | > 100 |  |  |  | > 100 |  | > 100 |  | > 100 |  | > 100 |  | > 100 |  | > 100 |  | > 100 |  | 
